# ChEMBL document CHEMBL1201862, “PubChem BioAssay data set” (2004)
# Activity calls are given as the source filed them.
# How the values were obtained:
# [1] = A Cell Based Secondary Assay To Explore Cytotoxicity of Compounds that Sensitize Mycobacterium Tuberculosis to Beta-Lactam Antibiotics.; format: functional
# [2] = target: Voltage-dependent T-type calcium channel subunit alpha-1H (Homo sapiens, UniProt O95180); format: functional;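 further: channel activity triggered by adding a high calcium stimulation buffer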
# [3] = target: Coagulation factor XII (Homo sapiens, UniProt P00748); format: functional;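 further: activated factor XIIa alpha cleaving a fluorogenic AMC peptide substrate; inhibitor potency from loss of enzyme activity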
# Coagulation factor XII, sequence (P00748 20-372 limits assumed): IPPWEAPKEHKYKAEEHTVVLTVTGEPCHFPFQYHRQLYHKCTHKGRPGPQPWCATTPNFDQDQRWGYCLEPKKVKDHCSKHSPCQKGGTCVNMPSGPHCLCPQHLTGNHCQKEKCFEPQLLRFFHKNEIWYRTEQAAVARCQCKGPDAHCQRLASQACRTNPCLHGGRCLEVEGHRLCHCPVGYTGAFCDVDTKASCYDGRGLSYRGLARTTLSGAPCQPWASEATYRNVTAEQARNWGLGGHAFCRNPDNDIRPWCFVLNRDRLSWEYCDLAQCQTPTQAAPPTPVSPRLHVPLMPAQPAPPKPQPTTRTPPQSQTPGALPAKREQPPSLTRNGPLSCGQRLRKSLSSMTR
# Coagulation factor XII, sequence (P00748 373-615 limits assumed): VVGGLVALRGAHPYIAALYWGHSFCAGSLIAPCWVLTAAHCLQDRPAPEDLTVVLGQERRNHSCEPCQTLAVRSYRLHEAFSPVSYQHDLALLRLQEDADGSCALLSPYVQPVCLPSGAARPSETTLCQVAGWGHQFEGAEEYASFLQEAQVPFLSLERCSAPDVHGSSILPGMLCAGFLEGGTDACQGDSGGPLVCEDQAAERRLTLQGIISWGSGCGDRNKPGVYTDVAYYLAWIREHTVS
# [4] = target: Trypsin (Sus scrofa, UniProt P00761); assay: porcine trypsin inhibitors, dose response, selectivity assay for Rce1 protease inhibitor project, biochemical, quenched peptide fluorescence, cherry-pick (AID 488789)
# Trypsin, sequence (P00761 whole entry): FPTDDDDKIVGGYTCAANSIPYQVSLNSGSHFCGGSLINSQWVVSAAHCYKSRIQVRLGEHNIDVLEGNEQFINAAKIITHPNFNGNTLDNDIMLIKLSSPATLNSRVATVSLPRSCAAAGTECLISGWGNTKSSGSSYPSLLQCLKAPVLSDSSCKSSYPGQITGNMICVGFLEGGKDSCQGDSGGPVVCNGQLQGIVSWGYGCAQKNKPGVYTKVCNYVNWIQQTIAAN
# [5] = target: T1, CAAX prenyl protease 2 (Homo sapiens, UniProt Q9Y256); assay: human Rce1 protease inhibitors, dose response, biochemical, yeast membranes, quenched-peptide fluorescence, cherry-pick (AID 588849)
# T1 sequence (Q9Y256 whole entry): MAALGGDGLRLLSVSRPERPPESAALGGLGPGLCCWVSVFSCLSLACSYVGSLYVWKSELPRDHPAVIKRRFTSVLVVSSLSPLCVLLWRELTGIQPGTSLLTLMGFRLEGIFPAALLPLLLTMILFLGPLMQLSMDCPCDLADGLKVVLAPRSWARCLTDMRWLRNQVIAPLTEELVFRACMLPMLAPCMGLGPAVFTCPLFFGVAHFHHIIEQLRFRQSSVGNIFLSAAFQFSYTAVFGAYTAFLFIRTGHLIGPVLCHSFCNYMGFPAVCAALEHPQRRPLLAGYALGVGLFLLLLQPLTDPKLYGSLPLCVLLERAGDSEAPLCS
# [6] = target: T2, Cytochrome P450 2C9 (Homo sapiens, UniProt P11712); conditions: Potency
# T2 sequence (P11712 whole entry): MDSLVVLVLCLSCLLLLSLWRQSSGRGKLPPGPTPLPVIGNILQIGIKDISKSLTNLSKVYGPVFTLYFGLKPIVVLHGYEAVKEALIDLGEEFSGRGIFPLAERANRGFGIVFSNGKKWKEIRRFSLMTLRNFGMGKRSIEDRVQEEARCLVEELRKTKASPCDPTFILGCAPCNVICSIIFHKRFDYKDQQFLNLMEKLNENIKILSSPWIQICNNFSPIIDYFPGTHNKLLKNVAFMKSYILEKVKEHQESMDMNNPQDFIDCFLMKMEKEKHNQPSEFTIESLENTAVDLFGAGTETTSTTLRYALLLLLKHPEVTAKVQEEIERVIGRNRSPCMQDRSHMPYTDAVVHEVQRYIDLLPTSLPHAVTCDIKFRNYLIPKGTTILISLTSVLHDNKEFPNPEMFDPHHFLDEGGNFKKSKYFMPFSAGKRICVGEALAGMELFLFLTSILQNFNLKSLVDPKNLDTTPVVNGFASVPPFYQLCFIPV
# [7] = target: T3, Cytochrome P450 3A4 (Homo sapiens, UniProt P08684); conditions: Potency
# T3 sequence (P08684 whole entry): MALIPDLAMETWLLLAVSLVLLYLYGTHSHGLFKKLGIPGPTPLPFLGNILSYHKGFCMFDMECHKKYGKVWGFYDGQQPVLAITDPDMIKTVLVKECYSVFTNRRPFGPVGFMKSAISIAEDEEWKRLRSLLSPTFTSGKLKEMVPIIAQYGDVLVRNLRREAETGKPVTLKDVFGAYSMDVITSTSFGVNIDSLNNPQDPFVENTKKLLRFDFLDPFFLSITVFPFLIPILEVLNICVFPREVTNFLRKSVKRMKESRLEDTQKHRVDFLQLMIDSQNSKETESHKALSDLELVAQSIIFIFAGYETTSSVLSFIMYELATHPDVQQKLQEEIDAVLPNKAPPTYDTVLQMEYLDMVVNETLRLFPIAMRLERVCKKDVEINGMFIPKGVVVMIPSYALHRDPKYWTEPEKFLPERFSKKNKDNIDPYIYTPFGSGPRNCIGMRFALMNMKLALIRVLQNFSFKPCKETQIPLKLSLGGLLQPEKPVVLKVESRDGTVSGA
# [8] = tested on: Saccharomyces cerevisiae; assay: NALP1 inhibitor project selectivity study, Caspase-1/ASC signal blockade IC50 in S. cerevisiae (AID 488863); format: functional, organism-based
# [9] = target: Prothrombin (Homo sapiens, UniProt P00734); assay: Thrombin 1536 HTS Dose Response Confirmation. [Related pubchem assays: 1046 (Thrombin 1536 HTS; hits were confirmed in this assay)]; format: functional
# [10] = target: NACHT, LRR and PYD domains-containing protein 1 (Homo sapiens, UniProt Q9C000); assay: NALP1 inhibitors in yeast, dose response, luminescent (AID 488860); format: functional
# NACHT, LRR and PYD domains-containing protein 1, sequence (Q9C000 1-1212 limits assumed): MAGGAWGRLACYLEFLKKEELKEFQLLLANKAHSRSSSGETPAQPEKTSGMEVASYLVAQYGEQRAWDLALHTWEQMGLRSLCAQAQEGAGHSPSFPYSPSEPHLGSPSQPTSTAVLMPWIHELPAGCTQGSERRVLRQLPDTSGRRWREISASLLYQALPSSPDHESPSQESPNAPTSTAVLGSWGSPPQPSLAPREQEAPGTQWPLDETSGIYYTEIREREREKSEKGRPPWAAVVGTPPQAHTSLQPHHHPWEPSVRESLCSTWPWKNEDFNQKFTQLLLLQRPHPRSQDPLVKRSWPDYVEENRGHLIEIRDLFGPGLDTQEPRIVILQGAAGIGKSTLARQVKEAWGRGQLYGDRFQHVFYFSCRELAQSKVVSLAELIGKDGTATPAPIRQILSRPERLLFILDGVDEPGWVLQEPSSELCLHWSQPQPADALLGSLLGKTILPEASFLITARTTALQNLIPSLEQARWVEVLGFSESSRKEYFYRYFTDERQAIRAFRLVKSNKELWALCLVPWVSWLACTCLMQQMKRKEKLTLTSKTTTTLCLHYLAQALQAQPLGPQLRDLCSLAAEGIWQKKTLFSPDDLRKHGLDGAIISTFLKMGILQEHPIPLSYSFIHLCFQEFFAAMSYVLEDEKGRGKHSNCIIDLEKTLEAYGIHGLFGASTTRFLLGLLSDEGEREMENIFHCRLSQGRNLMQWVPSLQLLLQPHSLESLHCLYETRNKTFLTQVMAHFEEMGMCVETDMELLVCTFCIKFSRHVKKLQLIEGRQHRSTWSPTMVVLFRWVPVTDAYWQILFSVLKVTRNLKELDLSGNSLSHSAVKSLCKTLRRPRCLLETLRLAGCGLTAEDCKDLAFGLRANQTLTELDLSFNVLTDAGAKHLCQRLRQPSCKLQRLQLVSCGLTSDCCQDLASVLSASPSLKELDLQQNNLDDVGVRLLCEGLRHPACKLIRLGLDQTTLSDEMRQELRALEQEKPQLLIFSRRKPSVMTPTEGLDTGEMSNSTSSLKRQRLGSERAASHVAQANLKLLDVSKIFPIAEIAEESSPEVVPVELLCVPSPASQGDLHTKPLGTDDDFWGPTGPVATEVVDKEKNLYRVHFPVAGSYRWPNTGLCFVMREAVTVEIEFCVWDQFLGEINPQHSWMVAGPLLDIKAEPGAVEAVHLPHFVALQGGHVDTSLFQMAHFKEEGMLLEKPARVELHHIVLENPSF
# NACHT, LRR and PYD domains-containing protein 1, sequence (Q9C000 1213-1473 limits assumed): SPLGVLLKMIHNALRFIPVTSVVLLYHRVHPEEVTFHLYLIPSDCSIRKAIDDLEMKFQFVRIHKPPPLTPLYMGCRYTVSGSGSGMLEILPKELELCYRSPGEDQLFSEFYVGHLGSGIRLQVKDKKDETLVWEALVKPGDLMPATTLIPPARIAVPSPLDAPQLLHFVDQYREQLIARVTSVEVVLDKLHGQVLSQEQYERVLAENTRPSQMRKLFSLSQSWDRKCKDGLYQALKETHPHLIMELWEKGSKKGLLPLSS
# [11] = target: NS3 (Hepatitis C virus, UniProt A3EZJ3); assay: PubChem AID 2173; design: species or system Hepacivirus hominis
# [12] = target: Luciferin 4-monooxygenase (Photinus pyralis, UniProt P08659); assay: Counter Screen for Luciferase-based Assay Positives. [Related pubchem assays: 620, 618, 411 ]
# Luciferin 4-monooxygenase, sequence (P08659 whole entry): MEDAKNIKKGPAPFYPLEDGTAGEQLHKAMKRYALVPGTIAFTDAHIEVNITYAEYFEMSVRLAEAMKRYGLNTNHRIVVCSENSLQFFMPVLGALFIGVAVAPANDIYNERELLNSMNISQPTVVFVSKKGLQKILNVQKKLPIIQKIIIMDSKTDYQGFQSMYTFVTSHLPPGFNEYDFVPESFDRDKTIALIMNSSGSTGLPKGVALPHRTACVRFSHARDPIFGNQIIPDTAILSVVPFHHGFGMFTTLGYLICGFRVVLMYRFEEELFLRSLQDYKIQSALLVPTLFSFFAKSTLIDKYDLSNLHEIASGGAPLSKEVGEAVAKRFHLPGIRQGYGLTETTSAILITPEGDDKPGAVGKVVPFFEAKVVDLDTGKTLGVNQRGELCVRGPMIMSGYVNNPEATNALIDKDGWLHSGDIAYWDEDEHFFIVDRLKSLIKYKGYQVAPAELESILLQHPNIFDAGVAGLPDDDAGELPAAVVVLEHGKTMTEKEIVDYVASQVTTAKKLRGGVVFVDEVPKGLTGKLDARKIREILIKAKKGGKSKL
# [13] = tested on: HT-1080; assay: cytotoxicity in HT1080 fibrosarcoma cells, cell-based, fluorescence readout (AID 620); format: functional; conditions: Homo sapiens
# [14] = target: T4, Calpain-2 catalytic subunit (Sus scrofa, UniProt P43367); assay: pig calpain II inhibitor potency, dose response, biochemical, fluorogenic peptide substrate (AID 1420); format: functional
# T4 sequence (P43367 whole entry): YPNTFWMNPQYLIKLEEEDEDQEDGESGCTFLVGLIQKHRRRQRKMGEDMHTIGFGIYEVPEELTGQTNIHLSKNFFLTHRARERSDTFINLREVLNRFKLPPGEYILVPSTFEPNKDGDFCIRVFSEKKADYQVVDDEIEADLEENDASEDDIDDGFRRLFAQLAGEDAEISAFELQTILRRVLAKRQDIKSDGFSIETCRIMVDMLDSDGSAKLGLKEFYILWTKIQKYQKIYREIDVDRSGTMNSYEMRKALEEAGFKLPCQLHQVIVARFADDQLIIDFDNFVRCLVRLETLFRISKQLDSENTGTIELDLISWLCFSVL
# [15] = target: T2, Cytochrome P450 2C9
# [16] = target: T3, Cytochrome P450 3A4
# [17] = target: T5, Cytochrome P450 1A2 (Homo sapiens, UniProt P05177);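 further: PubChem cytochrome P450 panel assay, CYP1A2 panel member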
# T5 sequence (P05177 whole entry): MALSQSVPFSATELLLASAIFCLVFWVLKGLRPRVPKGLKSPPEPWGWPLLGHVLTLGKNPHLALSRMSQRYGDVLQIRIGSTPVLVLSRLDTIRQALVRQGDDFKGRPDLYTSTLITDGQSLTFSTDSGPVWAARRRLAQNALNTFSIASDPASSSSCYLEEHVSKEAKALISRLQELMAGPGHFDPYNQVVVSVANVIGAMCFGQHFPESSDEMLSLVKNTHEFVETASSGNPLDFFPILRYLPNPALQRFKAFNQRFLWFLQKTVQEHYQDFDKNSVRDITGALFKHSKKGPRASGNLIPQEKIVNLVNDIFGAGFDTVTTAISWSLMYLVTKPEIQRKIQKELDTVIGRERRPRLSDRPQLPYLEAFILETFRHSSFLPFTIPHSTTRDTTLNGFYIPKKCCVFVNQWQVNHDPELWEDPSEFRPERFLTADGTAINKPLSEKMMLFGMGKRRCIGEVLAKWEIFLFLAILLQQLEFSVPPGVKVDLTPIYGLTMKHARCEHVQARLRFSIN
# [18] = target: CAAX prenyl protease 2 (Saccharomyces cerevisiae S288c, UniProt Q03530); format: biochemical
# CAAX prenyl protease 2 (Saccharomyces cerevisiae S288c, UniProt Q03530), sequence (Q03530 whole entry): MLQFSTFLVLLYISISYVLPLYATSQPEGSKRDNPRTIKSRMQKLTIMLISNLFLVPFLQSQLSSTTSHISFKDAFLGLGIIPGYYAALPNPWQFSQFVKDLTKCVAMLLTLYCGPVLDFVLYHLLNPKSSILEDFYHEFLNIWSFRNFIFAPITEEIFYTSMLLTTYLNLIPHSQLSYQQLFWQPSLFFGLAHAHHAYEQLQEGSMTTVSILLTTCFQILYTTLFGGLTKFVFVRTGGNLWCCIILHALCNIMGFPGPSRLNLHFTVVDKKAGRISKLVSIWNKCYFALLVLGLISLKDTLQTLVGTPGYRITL
# [19] = target: T2, Cytochrome P450 2C9; remark: listed apart in the source
# [20] = target: T3, Cytochrome P450 3A4; remark: listed apart in the source
# [21] = target: T6, Streptokinase A (Streptococcus pyogenes serotype M1, UniProt P10520); assay: S. pyogenes streptokinase expression inhibitors, potency, dose response, plasminogen activation absorbance, OD405 (AID 1914); format: functional, Streptococcus pyogenes M1 GAS;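 further: secreted streptokinase activity via plasminogen activation per viability signal from cell pellet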
# T6 sequence (P10520 whole entry): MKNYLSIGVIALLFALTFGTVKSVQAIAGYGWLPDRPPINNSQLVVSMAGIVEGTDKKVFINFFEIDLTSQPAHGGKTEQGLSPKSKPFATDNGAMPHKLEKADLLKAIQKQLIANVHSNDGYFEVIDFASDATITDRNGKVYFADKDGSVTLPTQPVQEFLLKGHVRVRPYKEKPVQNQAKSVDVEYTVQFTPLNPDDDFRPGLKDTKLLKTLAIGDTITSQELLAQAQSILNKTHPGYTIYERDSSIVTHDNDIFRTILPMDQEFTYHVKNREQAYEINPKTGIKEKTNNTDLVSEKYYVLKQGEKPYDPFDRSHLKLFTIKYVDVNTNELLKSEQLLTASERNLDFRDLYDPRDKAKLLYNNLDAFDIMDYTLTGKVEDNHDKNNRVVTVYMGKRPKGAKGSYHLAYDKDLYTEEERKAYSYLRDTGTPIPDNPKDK
# [22] = tested on: Streptococcus sp. 'group A'; assay: growth inhibition of control SK(-) GAS strain, dose response, counter-screen for streptokinase expression inhibitor project, luminescence, kanamycin, BacTiterGlo, confirmation (AID 1900); format: functional, organism-based
# [23] = tested on: Streptococcus; assay: Group A Streptococcus viability loss, dose response, counter-screen for streptokinase expression inhibitor project, luminescence, BacTiterGlo (AID 1915); format: functional, organism-based;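 further: potency for reduction of bacterial viability or growth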
# [24] = target: Peroxisome proliferator-activated receptor gamma/Nuclear receptor coactivator 3 (Homo sapiens, UniProt P37231); format: functional;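 further: agonist potency for raising coactivator recruitment to the receptor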
# [25] = target: Peroxisome proliferator-activated receptor gamma/Nuclear receptor coactivator 2 (Homo sapiens, UniProt P37231); format: functional;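 further: agonist potency for raising coactivator recruitment to the receptor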
# [26] = target: Peroxisome proliferator-activated receptor gamma/Nuclear receptor coactivator 1 (Homo sapiens, UniProt P37231); format: functional;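 further: agonist potency as compounds enhance coactivator SRC-1 recruitment to PPARgamma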
# [27] = target: Tumor necrosis factor (Homo sapiens, UniProt P01375); assay: TNFa-triggered NF-kB activation inhibitors, SAR follow-up, cell-based, revised (AID 2337); format: functional
# Tumor necrosis factor, sequence (P01375 whole entry, the tested form may be a part): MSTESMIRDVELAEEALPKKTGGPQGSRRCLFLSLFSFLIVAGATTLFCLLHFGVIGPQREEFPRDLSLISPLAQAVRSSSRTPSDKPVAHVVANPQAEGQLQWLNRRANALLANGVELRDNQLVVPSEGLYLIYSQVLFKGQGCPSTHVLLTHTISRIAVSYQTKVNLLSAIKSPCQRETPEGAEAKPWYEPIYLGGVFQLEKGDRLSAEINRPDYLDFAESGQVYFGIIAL
# [28] = target: T7, Nucleotide-binding oligomerization domain-containing protein 1 (Homo sapiens, UniProt Q9Y239); assay: NOD1 signaling inhibitors, SAR follow-up, revised (AID 2333); format: functional
# T7 sequence (Q9Y239 whole entry): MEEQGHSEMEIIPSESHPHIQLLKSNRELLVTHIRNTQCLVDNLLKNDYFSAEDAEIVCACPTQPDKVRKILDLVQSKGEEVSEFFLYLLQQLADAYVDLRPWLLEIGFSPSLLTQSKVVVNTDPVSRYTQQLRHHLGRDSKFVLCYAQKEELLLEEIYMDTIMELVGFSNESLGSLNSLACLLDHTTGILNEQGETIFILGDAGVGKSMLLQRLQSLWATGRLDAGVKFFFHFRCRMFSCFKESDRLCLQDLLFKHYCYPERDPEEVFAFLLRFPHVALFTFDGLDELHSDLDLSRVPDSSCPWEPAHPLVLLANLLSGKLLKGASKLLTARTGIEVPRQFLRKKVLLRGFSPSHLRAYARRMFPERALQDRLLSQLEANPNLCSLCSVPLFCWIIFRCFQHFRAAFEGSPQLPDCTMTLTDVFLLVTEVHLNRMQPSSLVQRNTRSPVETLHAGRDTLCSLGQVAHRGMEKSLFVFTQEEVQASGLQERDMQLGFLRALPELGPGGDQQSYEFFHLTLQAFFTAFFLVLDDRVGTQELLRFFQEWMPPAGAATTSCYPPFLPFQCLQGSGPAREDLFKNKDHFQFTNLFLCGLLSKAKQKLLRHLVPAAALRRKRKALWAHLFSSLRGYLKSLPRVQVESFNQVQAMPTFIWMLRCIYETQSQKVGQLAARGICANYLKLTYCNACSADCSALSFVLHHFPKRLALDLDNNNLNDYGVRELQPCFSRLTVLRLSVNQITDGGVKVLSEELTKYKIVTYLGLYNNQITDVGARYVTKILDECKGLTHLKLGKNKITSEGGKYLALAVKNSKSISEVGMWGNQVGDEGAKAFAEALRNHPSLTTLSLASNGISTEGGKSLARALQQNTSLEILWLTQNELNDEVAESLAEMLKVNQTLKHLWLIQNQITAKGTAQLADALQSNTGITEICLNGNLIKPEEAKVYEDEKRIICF
# [29] = tested on: HEK293; assay: cells; conditions: Homo sapiens;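 further: cells exposed to compound for 14 hours overnight before viability readout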
# [30] = target: Phosphoethanolamine/phosphocholine phosphatase (Homo sapiens, UniProt Q8TCT1); assay: SAR assay for compounds that inhibit PHOSPHO1. [Related pubchem assays (depositor defined):AID1545, AID1565, AID1574]
# Phosphoethanolamine/phosphocholine phosphatase, sequence (Q8TCT1 whole entry): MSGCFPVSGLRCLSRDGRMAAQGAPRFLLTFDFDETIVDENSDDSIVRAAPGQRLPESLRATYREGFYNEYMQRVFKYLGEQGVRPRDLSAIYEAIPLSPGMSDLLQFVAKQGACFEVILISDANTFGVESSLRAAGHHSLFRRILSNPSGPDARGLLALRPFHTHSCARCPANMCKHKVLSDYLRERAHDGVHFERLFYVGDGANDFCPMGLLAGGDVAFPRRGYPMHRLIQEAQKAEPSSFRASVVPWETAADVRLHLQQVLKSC
compound,measurement,setting,value
COc1ccc(C(=O)Nc2oc(-c3ccccc3)c(-c3ccccc3)c2C#N)cc1OC,CC50,[1],> 40 µM (active)
O=S(=O)(Nc1ccc(S(=O)(=O)N2CCCCC2)cc1)c1ccc(Br)s1,EC50,[2],3.58 µM (active)
O=C(Nc1ncnc2sc3c(c12)CCCCC3)c1ccc(F)cc1,IC50,[3],> 50 µM (inactive)
COc1cc2nc3c(O)n(CCN4CCOCC4)cnc-3c2cc1OC,AC50,[4],16.1 µM (active)
same,AC50,[5],9.95 µM (active)
COc1cc2c(cc1O)-c1c(O)c(OC)cc3c1[C@H](C2)N(C)CC3,AC50,[6],31.6 µM (inconclusive)
same,AC50,[7],20 µM (inconclusive)
Cc1ccc2c(c1)c1c3n2CCCNC3CCC1 (stereo not given),IC50,[8],87.6 µM (active)
same,IC50,[9],> 50 µM (not active)
same,IC50,[10],> 100 µM (inactive)
CCc1cc2c(=O)n(Cc3ccco3)c(SCc3c(C)noc3C)nc2s1,IC50,[11],25.6 µM (not active)
same,EC50,[12],0.34 µM (active)
same,EC50,[13],15.3 µM (active)
O=[N+]([O-])c1cc(C(F)(F)F)ccc1NCCc1c[nH]c2ccc(O)cc12,CC50,[1],> 40 µM (active)
same,IC50,[14],7.48 µM (not active)
CN(C)c1ccc(/C=C2\SC(=S)N(Nc3ncc(C(F)(F)F)cc3Cl)C2=O)cc1,AC50,[15],inconclusive
same,EC50,[2],2.86 µM (active)
same,AC50,[16],14.1 µM (inconclusive)
same,AC50,[17],5.01 µM (inconclusive)
c1coc(-c2ccnc3ncnn23)c1,AC50,[18],24.5 µM (active)
same,AC50,[5],3.88 µM (active)
CC(=O)[C@@H]1CC[C@@H]2[C@@H]3CCC4=CC(=O)CC[C@@]4(C)[C@H]3CC[C@]21C,AC50,[6],39.8 µM (inconclusive)
same,AC50,[19],15.8 µM (inconclusive)
same,AC50,[20],inconclusive
C=C(C)C(=O)Nc1nnc(-c2cccs2)s1,IC50,[8],15 µM (active)
same,IC50,[10],11 µM (active)
CN(C)c1ccc(C(=S)N2CCOCC2)cc1 [(4-(DIMETHYLAMINO)PHENYL)(MORPHOLINO)METHANETHIONE],IC50,[3],> 50 µM (inactive)
CCCCNc1c(-c2ccc(SC(C)CC)c(OC)c2)nc2ccc(C)cn12 (stereo not given),AC50,[4],2.63 µM (active)
same,EC50,[21],8.79 µM (active)
same,EC50,[22],3.09 µM (active)
same,AC50,[18],39.7 µM (active)
same,AC50,[5],32.5 µM (active)
same,EC50,[23],10.2 µM (active)
COc1ccc(-c2cc(-c3cccs3)c(C#N)c(SCC(=O)NCc3ccccc3)n2)cc1,EC50,[24],22.2 µM (not active)
same,EC50,[25],14.2 µM (not active)
same,EC50,[26],18.8 µM (not active)
COC(=O)c1c(NC(=O)c2ccc(Cl)cc2)sc2c1CCCC2,IC50,[27],> 20 µM (inactive)
same,IC50,[28],> 20 µM (inactive)
same,IC50,[29],> 20 µM (inactive)
c1ccc(Nc2nc(-c3ccccc3)[n+](-c3ccccc3)s2)cc1,IC50,[30],4.99 µM (inactive)
